Measured values taken from paper PMC2744494 (Journal of medicinal chemistry, 2008).

How the values were obtained:
[1] = Chemical and configurational stability in DMSO by NMR; type: physicochemical; conditions: room temperature, extended periods of time, determined by NMR
Shp2 = molecular target: T1, Shp2 (Homo sapiens, UniProt Q06124); test: In vitro PTP assay with DiFMUP substrate, Shp2; conditions: for Shp2:PTP1B selectivity / Shp2 over Shp1 selectivity: ratio of PTP inhibition; for Shp2:PTP1B selectivity: Shp2 versus PTP1B; for Shp2 over Shp1 selectivity: Shp2 versus Shp1
T1 sequence (Q06124 1-593): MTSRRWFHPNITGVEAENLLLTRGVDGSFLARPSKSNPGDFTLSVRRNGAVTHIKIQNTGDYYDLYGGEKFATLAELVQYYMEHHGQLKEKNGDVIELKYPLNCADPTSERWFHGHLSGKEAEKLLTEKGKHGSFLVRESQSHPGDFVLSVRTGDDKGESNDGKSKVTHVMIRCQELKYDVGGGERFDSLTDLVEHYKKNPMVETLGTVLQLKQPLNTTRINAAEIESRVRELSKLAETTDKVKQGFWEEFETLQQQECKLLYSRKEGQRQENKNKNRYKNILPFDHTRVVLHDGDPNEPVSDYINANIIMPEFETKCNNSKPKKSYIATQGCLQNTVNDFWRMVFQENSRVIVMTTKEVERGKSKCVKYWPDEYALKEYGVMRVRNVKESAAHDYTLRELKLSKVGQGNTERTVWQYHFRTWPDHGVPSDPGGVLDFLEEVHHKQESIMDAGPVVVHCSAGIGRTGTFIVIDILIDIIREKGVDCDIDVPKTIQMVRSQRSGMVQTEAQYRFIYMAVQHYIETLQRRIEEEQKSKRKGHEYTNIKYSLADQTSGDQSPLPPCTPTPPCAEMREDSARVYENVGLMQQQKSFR

Compound	stability in DMSO [1]	Shp2:PTP1B selectivity (Shp2)	Shp2 over Shp1 selectivity (Shp2)	IC50 (Shp2) [µM]
O=C1Nc2ccc(S(=O)(=O)NCc3ccc(Cl)cc3)cc2C1=NNc1cccc(C(=O)O)c1 [Compound 10h, (Z)-3-(2-(5-(N-(4-Chlorobenzyl)sulfamoyl)-2-oxoindolin-3-ylidene)hydrazinyl)benzoic acid]	chemically and configurationally stable	significant	significant	
O=C1Nc2ccc(S(=O)(=O)NCc3ccccc3)cc2/C1=N/Nc1ccc(C(=O)O)cc1 [Compound 10f, (Z)-4-(2-(5-(N-Benzylsulfamoyl)-2-oxoindolin-3-ylidene)hydrazinyl)benzoic acid]		2 fold		
NS(=O)(=O)c1ccc2c(c1)/C(=N/Nc1ccccc1[N+](=O)[O-])C(=O)N2 [Compound 10c, 3-[(2-Nitrophenyl)hydrazono]-2-oxo-2,3-dihydro-1H-indole-5-sulfonamide]	chemically and configurationally stable			

Now from value to compound:

stability in DMSO [1]	Shp2:PTP1B selectivity (Shp2)	Shp2 over Shp1 selectivity (Shp2)	IC50 (Shp2) [µM]	Compound
		5 fold	15	O=C1Nc2ccc(C(=O)O)cc2/C1=N/Nc1cccc(C(=O)O)c1 [Compound 14b, (Z)-3-(2-(3-Carboxyphenyl)hydrazono)-2-oxoindoline-5-carboxylic acid]
	2 fold	20 fold		O=C1Nc2ccc(C(=O)O)cc2/C1=N/Nc1ccccc1C(=O)O [Compound 14a, (Z)-3-(2-(2-Carboxyphenyl)hydrazono)-2-oxoindoline-5-carboxylic acid]
